Data published in PMC5008386, “Oridonin, a novel lysine acetyltransferases inhibitor, inhibits proliferation and induces apoptosis in gastric cancer cells through p53- and caspase-3-mediated mechanisms” (Oncotarget, 2016).

Molecular target: T1, P300 (Homo sapiens, UniProt Q09472)
T1 construct: gene EP300
Test: fluorogenic P300 acetyltransferase assay; also [3H]-acetyl CoA autoradiography and BLI (Octet RED96) with biotinylated oridonin
Assay type: biochemical

T1 sequence (Q09472 2-2414): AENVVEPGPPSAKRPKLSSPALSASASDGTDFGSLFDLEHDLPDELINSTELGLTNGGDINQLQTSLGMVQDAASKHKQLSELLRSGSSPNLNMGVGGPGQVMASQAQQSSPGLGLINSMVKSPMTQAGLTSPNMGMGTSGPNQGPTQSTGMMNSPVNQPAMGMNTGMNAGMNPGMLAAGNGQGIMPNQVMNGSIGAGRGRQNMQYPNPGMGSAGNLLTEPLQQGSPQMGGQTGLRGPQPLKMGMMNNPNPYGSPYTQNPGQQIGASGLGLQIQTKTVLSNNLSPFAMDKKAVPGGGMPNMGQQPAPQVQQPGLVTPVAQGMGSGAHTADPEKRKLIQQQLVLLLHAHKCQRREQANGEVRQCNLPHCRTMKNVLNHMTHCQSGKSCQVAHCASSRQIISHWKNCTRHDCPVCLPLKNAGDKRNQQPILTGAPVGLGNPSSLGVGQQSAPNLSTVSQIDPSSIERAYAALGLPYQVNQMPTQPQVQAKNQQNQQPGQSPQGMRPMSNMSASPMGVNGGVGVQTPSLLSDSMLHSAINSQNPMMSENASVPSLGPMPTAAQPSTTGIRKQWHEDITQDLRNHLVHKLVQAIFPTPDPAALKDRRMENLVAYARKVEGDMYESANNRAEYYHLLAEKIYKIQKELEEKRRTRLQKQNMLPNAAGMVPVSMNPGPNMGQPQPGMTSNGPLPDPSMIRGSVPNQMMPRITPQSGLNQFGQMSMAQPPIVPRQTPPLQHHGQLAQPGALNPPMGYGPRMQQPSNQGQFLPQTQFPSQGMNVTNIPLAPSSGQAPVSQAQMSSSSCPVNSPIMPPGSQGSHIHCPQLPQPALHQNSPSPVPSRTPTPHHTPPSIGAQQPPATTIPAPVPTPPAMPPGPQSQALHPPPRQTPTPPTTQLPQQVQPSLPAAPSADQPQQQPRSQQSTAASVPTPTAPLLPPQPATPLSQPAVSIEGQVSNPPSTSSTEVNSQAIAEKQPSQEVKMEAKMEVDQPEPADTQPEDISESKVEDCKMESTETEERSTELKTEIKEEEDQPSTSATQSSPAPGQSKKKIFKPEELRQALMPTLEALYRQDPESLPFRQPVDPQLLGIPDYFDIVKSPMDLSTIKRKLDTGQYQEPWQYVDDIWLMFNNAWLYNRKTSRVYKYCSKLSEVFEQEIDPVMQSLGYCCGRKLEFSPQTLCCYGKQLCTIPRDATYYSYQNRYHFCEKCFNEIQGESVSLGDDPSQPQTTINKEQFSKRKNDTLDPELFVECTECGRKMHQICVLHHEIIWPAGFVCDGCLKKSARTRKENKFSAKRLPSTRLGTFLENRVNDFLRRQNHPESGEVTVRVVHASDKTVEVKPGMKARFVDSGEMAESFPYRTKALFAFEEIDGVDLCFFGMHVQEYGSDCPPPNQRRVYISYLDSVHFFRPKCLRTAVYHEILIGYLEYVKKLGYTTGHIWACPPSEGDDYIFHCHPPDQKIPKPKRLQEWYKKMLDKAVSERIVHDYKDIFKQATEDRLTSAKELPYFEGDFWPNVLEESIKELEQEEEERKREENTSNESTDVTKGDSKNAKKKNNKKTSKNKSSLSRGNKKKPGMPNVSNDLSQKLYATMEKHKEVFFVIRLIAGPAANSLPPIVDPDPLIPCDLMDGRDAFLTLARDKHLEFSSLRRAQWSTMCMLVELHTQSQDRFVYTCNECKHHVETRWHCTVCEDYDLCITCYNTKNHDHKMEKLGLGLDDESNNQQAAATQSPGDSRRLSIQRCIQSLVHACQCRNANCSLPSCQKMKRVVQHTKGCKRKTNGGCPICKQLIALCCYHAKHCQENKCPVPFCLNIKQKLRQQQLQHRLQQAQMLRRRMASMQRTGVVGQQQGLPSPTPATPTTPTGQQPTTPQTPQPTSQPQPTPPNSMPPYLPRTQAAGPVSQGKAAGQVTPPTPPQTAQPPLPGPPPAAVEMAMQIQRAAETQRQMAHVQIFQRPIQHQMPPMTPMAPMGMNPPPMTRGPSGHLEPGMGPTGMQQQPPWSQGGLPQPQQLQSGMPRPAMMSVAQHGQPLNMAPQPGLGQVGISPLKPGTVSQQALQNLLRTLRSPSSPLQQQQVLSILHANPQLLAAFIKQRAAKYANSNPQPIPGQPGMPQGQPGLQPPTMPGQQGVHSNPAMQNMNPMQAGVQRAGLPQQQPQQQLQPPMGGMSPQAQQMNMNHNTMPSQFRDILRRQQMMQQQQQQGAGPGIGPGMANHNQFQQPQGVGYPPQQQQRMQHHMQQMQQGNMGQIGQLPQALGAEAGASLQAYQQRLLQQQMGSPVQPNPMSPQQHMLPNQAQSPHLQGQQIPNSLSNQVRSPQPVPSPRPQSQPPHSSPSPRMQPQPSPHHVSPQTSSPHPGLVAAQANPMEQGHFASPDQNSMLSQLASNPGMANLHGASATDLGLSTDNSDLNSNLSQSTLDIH

SMILES: C=C1C(=O)[C@]23[C@H](O)[C@H]1CC[C@H]2[C@@]12CO[C@]3(O)[C@@H](O)[C@@H]1C(C)(C)CC[C@@H]2O [oridonin]
- IC50: ~5 µM
